Experimental data published in publication PMC10674866, “Electrosprayed Nanoparticles Containing Mangiferin-Rich Extract from Mango Leaves for Cosmeceutical Application” (Nanomaterials, 2023).
Converted amounts (≈) assume the structure as drawn.

What was measured:
Format in all cases: biochemical
[1] = molecular target: T1, tyrosinase from mushroom; test: absorbance at […] nm; conditions: L-tyrosine substrate; 20 mM phosphate pH 6.8; room temperature
T1 construct: gene PPO1

[2] = molecular target: T2, collagenase from Histidium histolyticum; test: fluorescence assay of collagen hydrolysis ([…],4-DHPAA / periodate); conditions: collagen substrate; borate buffer pH 7.5; 5 mM CaCl2; 37 °C
T2 construct: gene colG

[3] = molecular target: T3, hyaluronidase from bovine (Bos taurus, UniProt Q2YDK3); test: turbidity with acidic albumin, absorbance at […] nm; conditions: read-out: % inhibition at 40.0 μg/mL
T3 construct: gene SPAM1; commercial native enzyme (Sigma-Aldrich)
T3 sequence (Q2YDK3 36-553): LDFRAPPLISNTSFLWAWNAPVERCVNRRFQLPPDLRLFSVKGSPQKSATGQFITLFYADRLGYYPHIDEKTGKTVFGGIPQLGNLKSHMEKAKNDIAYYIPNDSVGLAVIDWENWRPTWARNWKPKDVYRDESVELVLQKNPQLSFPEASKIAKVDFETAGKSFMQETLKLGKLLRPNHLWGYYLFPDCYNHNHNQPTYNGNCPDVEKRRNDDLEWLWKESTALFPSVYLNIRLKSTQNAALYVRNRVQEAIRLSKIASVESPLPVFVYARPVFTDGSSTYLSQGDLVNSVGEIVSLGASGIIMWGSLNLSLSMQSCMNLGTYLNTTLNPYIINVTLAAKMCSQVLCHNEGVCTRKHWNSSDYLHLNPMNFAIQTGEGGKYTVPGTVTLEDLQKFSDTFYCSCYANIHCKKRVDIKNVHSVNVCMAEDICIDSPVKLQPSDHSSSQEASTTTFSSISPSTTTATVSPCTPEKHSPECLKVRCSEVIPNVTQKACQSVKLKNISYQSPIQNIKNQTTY

In the case of O=C1O[C@H]([C@@H](O)CO)C(O)=C1O [ascorbic acid], the IC50 [1] is reported as 69.8 ± 0.018 µg/mL (≈ 396 µM) and the IC50 [2] is reported as 107.84 ± 0.001 µg/mL (≈ 612 µM).

O=c1c2cc(O)c(O)cc2oc2cc(O)c([C@@H]3O[C@H](CO)[C@@H](O)[C@H](O)[C@H]3O)c(O)c12 [mangiferin] gave an inhibition at 40 µg/mL [3] of 1.72 ± 1.13% and an IC50 [2] of 30.06 ± 0.001 µg/mL (≈ 71.2 µM).
